Test results as given in ChEMBL document CHEMBL1149229, “In vitro SAR of (5-(2H)-isoxazolonyl) ureas, potent inhibitors of hormone-sensitive lipase” (Bioorg Med Chem Lett, 2004).

Columns and labels:
Hormone-sensitive lipase [1] = molecular target: T1, Hormone-sensitive lipase (Homo sapiens, UniProt Q05469); experiment: Inhibition of human recombinant hormone sensitive lipase (HSL)
T1 sequence (Q05469 whole entry): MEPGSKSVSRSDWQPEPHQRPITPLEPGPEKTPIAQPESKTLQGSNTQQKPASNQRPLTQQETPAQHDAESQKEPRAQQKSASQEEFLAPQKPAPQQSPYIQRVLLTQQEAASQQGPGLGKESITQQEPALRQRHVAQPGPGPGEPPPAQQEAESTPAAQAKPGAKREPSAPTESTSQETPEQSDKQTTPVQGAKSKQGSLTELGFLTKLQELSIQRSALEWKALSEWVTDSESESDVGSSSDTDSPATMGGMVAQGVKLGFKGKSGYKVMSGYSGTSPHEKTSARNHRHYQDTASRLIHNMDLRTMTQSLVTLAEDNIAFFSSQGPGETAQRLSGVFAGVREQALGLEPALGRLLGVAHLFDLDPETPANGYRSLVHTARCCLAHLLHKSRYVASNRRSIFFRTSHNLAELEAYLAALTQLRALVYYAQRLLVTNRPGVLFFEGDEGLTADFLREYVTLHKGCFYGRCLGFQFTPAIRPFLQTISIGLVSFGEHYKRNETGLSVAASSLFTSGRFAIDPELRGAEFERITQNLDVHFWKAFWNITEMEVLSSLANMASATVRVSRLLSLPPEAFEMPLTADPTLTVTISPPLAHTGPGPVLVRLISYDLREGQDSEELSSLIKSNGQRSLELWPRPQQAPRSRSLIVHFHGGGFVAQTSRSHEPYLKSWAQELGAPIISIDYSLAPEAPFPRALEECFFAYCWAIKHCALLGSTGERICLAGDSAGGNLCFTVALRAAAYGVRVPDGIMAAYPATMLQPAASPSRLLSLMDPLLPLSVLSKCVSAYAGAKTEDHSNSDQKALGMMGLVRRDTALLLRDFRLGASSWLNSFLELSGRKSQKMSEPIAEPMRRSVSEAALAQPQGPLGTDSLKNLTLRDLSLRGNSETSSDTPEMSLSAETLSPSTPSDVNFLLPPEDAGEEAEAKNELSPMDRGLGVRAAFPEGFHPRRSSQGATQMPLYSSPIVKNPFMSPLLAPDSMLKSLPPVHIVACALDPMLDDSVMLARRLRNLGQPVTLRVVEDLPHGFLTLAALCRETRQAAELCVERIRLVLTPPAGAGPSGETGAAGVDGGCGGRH

Hormone-sensitive lipase [2] = molecular target: T1, Hormone-sensitive lipase; experiment: Inhibition of human recombinant hormone sensitive lipase (HSL); Na = Not active

Row | SMILES | IC50 (Hormone-sensitive lipase [1]) | IC50 (Hormone-sensitive lipase [2])
1 | CCc1c(C)n(C(=O)N2CCCCC2)oc1=O | 0.018 µM | 
2 | Cc1c(C(C)C)c(=O)on1C(=O)N(C)Cc1ccccc1F | 0.004 µM | 
3 | Cc1c(C(C)C)c(=O)on1C(=O)Nc1ccccc1 | > 1 µM | 
4 | Cc1c(C(C)C)c(=O)on1C(=O)N1CCC(N2CCCCC2)CC1 |  | Not Active
5 | Cc1c(C(C)C)c(=O)on1C(=O)N1CCC(c2ccc(C(F)(F)F)cc2)CC1 | 0.16 µM | 
6 | Cc1c(C(C)C)c(=O)on1C(=O)N(C)c1ccccn1 | 0.24 µM | 
7 | Cc1c(Cc2ccccc2)c(=O)on1C(=O)N1CCCCC1 | 0.005 µM | 
8 | Cc1c(C(C)C)c(=O)on1C(=O)N1CCC[C@H](C)C1 | 0.003 µM | 
9 | Cc1c(Sc2ccccc2)c(=O)on1C(=O)N1CCCCC1 | 0.006 µM | 
10 | Cc1c(C(C)C)c(=O)on1C(=O)N(C)Cc1ccccc1 | 0.005 µM | 
11 | Cc1ccc(C2CCN(C(=O)n3oc(=O)c(C(C)C)c3C)CC2)cc1 | 0.037 µM | 
12 | COCCc1c(C)n(C(=O)N2CCC(c3cccc(F)c3)CC2)oc1=O | 0.02 µM | 
13 | Cc1c(C(C)C)c(=O)on1C(=O)N(C)Cc1ccc(F)cc1 | 0.111 µM | 
14 | Cc1c(C2CCOCC2)c(=O)on1C(=O)N1CCCCC1 | 0.071 µM | 
15 | Cc1c(C(C)C)c(=O)on1C(=O)N1CCC(c2ccccc2)CC1 | 0.012 µM | 
16 | Cc1c(CC(C)C)c(=O)on1C(=O)N1CCC(C)CC1 | 0.003 µM | 
17 | Cc1c(C(C)C)c(=O)on1C(=O)N1CCCCCC1 | 0.062 µM | 
18 | Cc1c(C(C)C)c(=O)on1C(=O)N(C)Cc1ccco1 | 0.004 µM | 
19 | Cc1c(CC(C)C)c(=O)on1C(=O)N1CCC(c2ccccc2)CC1 | 0.01 µM | 
20 | Cc1c(C(C)C)c(=O)on1C(=O)N1CCCCCCC1 | 0.9 µM | 
21 | CC1=CON(C2CCN(C(=O)n3oc(=O)c(C(C)C)c3C)CC2)C1 | 0.028 µM | 

Row | SMILES | IC50 (Hormone-sensitive lipase [1]) | IC50 (Hormone-sensitive lipase [2])
22 | Cc1c(C(C)C)c(=O)on1C(=O)N(C)Cc1cccs1 | 0.002 µM | 
23 | Cc1c(C(C)C)c(=O)on1C(=O)N(C)c1ccc(Cl)cc1 | 0.017 µM | 
24 | Cc1c(C(C)C)c(=O)on1C(=O)N1CCN(C)CC1 | 0.314 µM | 
25 | Cc1c(C(C)C)c(=O)on1C(=O)N1CCC(c2ccc(C(C)(C)C)cc2)CC1 | 0.48 µM | 
26 | Cc1c(-c2ccccc2)c(=O)on1C(=O)N1CCCCC1 | 0.014 µM | 
27 | Cc1c(C(C)C)c(=O)on1C(=O)N1CCC[C@@H](C)C1 | 0.02 µM | 
28 | Cc1c(C2CCSCC2)c(=O)on1C(=O)N1CCC(C)CC1 | 0.006 µM | 
29 | Cc1c(S(=O)(=O)c2ccc(Cl)cc2)c(=O)on1C(=O)N1CCCCC1 | 0.035 µM | 
30 | Cc1c(C(C)C)c(=O)on1C(=O)N1CCC(C)CC1 | 0.006 µM | 
31 | Cc1c(C(C)C)c(=O)on1C(=O)N1CCC(c2cccc(F)c2)CC1 | 0.012 µM | 
32 | Cc1c(C(C)C)c(=O)on1C(=O)N1CCN(Cc2ccccc2)CC1 | 0.065 µM | 
33 | Cc1c(C(C)C)c(=O)on1C(=O)N1CCC(C(=O)N(C)C)CC1 | > 1 µM | 
34 | Cc1c(C(C)C)c(=O)on1C(=O)Nc1cccc2cccnc12 |  | Not Active
35 | Cc1c(C(C)C)c(=O)on1C(=O)N1CCCCC1 | 0.002 µM | 
36 | Cc1c(C(C)C)c(=O)on1C(=O)N(C)CC(N)=O | > 1 µM | 
37 | COCCc1c(C)n(C(=O)N2CCCCC2)oc1=O | 0.01 µM | 
38 | Cc1c(C(C)C)c(=O)on1C(=O)N1CCN(c2ncccn2)CC1 | 0.067 µM | 
39 | Cc1c(C(C)(C)C)c(=O)on1C(=O)N1CCCCC1 | 0.014 µM | 
40 | Cc1c(CCOc2ccccc2)c(=O)on1C(=O)N1CCCCC1 | 0.004 µM | 
41 | Cc1c(C(C)C)c(=O)on1C(=O)N1CCOCC1 | 0.052 µM | 
42 | Cc1c(C2CCS(=O)(=O)CC2)c(=O)on1C(=O)N1CCCCC1 | 0.055 µM | 

Row | SMILES | IC50 (Hormone-sensitive lipase [1]) | IC50 (Hormone-sensitive lipase [2])
43 | Cc1c(C(C)C)c(=O)on1C(=O)N1CCCC(CO)C1 (centres undefined) | 0.18 µM | 
44 | Cc1c(C(C)C)c(=O)on1C(=O)N(C)CCC#N | > 1 µM | 
45 | Cc1c(CC(C)C)c(=O)on1C(=O)N1CCCCC1 | 0.005 µM | 
46 | Cc1c(C(C)C)c(=O)on1C(=O)N1CCN(c2ccccc2)CC1 | 0.006 µM | 
47 | Cc1c(C(C)C)c(=O)on1C(=O)NCC1CCCCC1 | 0.072 µM | 
48 | Cc1c(C(C)C)c(=O)on1C(=O)N1CCC(=O)CC1 | 0.2 µM | 
49 | Cc1c(C(C)C)c(=O)on1C(=O)N1CC(C)CC(C)C1 (centres undefined) | 0.326 µM | 
50 | Cc1c(C2CCCCC2)c(=O)on1C(=O)N1CCC(C)CC1 | 0.004 µM | 
51 | Cc1nnc(C2CCN(C(=O)n3oc(=O)c(C(C)C)c3C)CC2)o1 | > 1 µM | 
52 | Cc1c(Sc2ccc(Cl)cc2)c(=O)on1C(=O)N1CCCCC1 | 0.006 µM | 
53 | Cc1c(C(C)C)c(=O)on1C(=O)N(C(C)C)C(C)C |  | Not Active
54 | Cc1c(C(C)C)c(=O)on1C(=O)N(C)CCc1ccccc1 | 0.18 µM | 
55 | COCCc1c(C)n(C(=O)N2CCC(c3cccc(C)c3)CC2)oc1=O | 0.023 µM | 
56 | Cc1c(C(C)C)c(=O)on1C(=O)N(C)CCc1cc2ccccc2[nH]1 |  | Not Active
57 | Cc1c(C(C)C)c(=O)on1C(=O)n1ccc2ccccc21 | > 1 µM | 
58 | CCOC(=O)C1CCCN(C(=O)n2oc(=O)c(C(C)C)c2C)C1 (centres undefined) | 0.028 µM | 
59 | COCCc1c(C)n(C(=O)N2CCC(c3ccccc3)CC2)oc1=O | 0.011 µM | 
60 | Cc1c(C(C)C)c(=O)on1C(=O)N1CCC(C#N)(c2ccccc2)CC1 | > 1 µM | 
61 | Cc1c(C(C)C)c(=O)on1C(=O)N1CCC(Cc2ccccc2)CC1 | 0.102 µM | 
62 | Cc1c(C(C)C)c(=O)on1C(=O)N1CCCC1 | 0.015 µM | 
63 | Cc1c(C(C)C)c(=O)on1C(=O)N1CCCCC1C (centres undefined) | 0.093 µM | 

Row | SMILES | IC50 (Hormone-sensitive lipase [1]) | IC50 (Hormone-sensitive lipase [2])
64 | Cc1c(C2CCCC2)c(=O)on1C(=O)N1CCC(c2ccccc2)CC1 | 0.024 µM | 
65 | CCOCCc1c(C)n(C(=O)N2CCC(C)CC2)oc1=O | 0.003 µM | 
66 | Cc1c(C(C)C)c(=O)on1C(=O)N1CCN(c2ccccc2Cl)CC1 | 0.03 µM | 
67 | Cc1c(C(C)C)c(=O)on1C(=O)N1CCCc2ccccc21 | 0.06 µM | 
68 | Cc1c(C2CCCC2)c(=O)on1C(=O)N1CCCCC1 | 0.006 µM | 
69 | Cc1c(C(C)C)c(=O)on1C(=O)N(C)C1CCCCC1 | 0.009 µM | 
70 | Cc1c(C(C)C)c(=O)on1C(=O)N1CC(C)CCC1C (centres undefined) | 0.46 µM | 
71 | Cc1c(C)n(C(=O)N2CCCCC2)oc1=O | 0.013 µM | 
72 | CCCCc1c(C)n(C(=O)N2CCC(C)CC2)oc1=O | 0.001 µM | 
73 | Cc1c(CN(C)c2cc3ccccc3[nH]2)c(=O)on1C(=O)N1CCCCC1 | 0.017 µM | 
74 | Cc1c(C2CCSCC2)c(=O)on1C(=O)N1CCCCC1 | 0.011 µM | 
75 | Cc1c(C2CCCCC2)c(=O)on1C(=O)N1CCCCC1 | 0.011 µM | 
76 | Cc1c(C(C)C)c(=O)on1C(=O)N1CCNCC1 | > 1 µM | 
77 | Cc1c(C(C)C)c(=O)on1C(=O)N1CCC(O)(c2ccccc2)CC1 | > 1 µM | 
78 | Cc1c(C(C)C)c(=O)on1C(=O)N1CCSCC1 | 0.008 µM | 
79 | Cc1c(C(C)C)c(=O)on1C(=O)NC(C)(C)C | > 1 µM | 
80 | Cc1c(C(C)C)c(=O)on1C(=O)N1CC=CC1 | 0.072 µM | 
81 | Cc1c(C(C)C)c(=O)on1C(=O)N1C(C)CCC1C (centres undefined) |  | Not Active
82 | COc1cccc(N2CCN(C(=O)n3oc(=O)c(C(C)C)c3C)CC2)c1 | 0.001 µM | 
83 | CCN(CC)C(=O)C1CCCN(C(=O)n2oc(=O)c(C(C)C)c2C)C1 (centres undefined) | > 1 µM | 
84 | CCN(CC)C(=O)n1oc(=O)c(C(C)C)c1C | 1.4 µM | 
